From US9233979B2, “Compounds that are ERK inhibitors” (Merck Sharp & Dohme Corp., priority 2012, dated 2016) come the findings set out here.

In the assay the target is phosphorylated active hERK2 enzyme (Homo sapiens (Human), UniProt P28482). Description: Active Human ERK2 (hERK2) Activity Assay (IMAP-FP). The format is biochemical. As to conditions: Table 6, 0.5 nM hERK2, 30 μM ATP, 10 point titration, read-out: AERK2 IC50. Put shortly: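 IMAP detection beads in buffer with 24 mM NaCl stopped the reaction, and fluorescence polarization was read after 60 min binding.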
Sequence of phosphorylated active hERK2 enzyme (P28482 whole entry): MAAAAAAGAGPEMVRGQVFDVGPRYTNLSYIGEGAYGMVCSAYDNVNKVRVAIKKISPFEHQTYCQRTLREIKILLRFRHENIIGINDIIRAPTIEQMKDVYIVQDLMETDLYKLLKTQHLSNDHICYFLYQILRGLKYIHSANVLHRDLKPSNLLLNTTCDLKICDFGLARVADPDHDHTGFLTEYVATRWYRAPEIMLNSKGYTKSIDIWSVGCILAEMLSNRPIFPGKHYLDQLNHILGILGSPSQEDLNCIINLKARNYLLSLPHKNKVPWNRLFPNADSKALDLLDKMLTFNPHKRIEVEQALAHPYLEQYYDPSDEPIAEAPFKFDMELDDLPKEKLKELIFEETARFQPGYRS

For orientation: IC50 means the concentration at which inhibition is half-maximal.

In the case of `COC(=O)Nc1n[nH]c2cc(NC(=O)N[C@H](C)c3cccc(Cl)c3)ncc12` [Example 287, methyl [6-({[(1R)-1-(3-chlorophenyl)-ethyl]carbamoyl}-amino)-1H-pyrazolo[4,3-c]-pyridin-3-yl}-carbamate], the IC50 was found to be 1 nM. The result for `COC(=O)Nc1n[nH]c2cc(NC(=O)N[C@H](COC(F)F)c3ccccc3)ncc12` [Example 288, methyl [6-({[(1S)-2-(difluoro-methoxy)-1-phenylethyl]-carbamoyl}amino)-1H-pyrazolo[4,3-c]pyridin-3-yl}-carbamate] reads 0.6 nM; that for `COC(=O)Nc1n[nH]c2cc(NC(=O)N[C@@H](c3ccccc3)C3(O)CCCC3)ncc12` [Example 289, methyl [6-({[(S)-(1-hydroxycyclo-pentyl)(phenyl)-methyl]carbamoyl}amino)-1H-pyrazolo[4,3-c]-pyridin-3-yl]-carbamate], 0.9 nM; that for `COC(=O)Nc1n[nH]c2cc(NC(=O)N[C@@H](c3ccccc3)[C@H]3CCCO3)ncc12` [Example 290, methyl {6-[({(S)-phenyl[(2R)-tetra-hydrofuran-2-yl]-methyl}carbamoyl)amino]-1H-pyrazolo[4,3-c]-pyridin-3-yl}-carbamate], 0.6 nM.

`COC(=O)Nc1n[nH]c2cc(NC(=O)N[C@@H]3CN(C)C[C@H]3c3ccccc3)ncc12` [Example 291, methyl[6-({[(3S,4R)-1-methyl-4-phenyl-pyrrolidin-3-yl]carbamoyl}-amino)-1H-pyrazolo[4,3-c]pyridin-3-yl]-carbamate]: the IC50 stood at 1 nM. Regarding `COC(=O)Nc1n[nH]c2cc(NC(=O)N[C@H](C)C3CCCCC3)ncc12` [Example 292, methyl [6-({[(1R)-1-cyclohexylethyl]-carbamoyl}amino)-1H-pyrazolo[4,3-c]pyridin-3-yl]-carbamate], the IC50 stood at 19.7 nM.

Consider `COC(=O)Nc1n[nH]c2cc(NC(=O)NC3CNc4ccccc4C3)ncc12` (stereo not drawn) [Example 293, methyl {6-[(1,2,3,4-tetrahydroquinolin-3-ylcarbamoyl)-amino]-1H-pyrazolo[4,3-c]-pyridin-3-yl}-carbamate], for which the half-maximal inhibitory concentration (IC50) came out at 5.8 nM. Under `COC(=O)Nc1n[nH]c2cc(NC(=O)NC3COc4ccccc4C3)ncc12` (stereo not drawn) [Example 294, methyl {6-[(3,4-dihydro-2H-chromen-3-ylcarbamoyl)amino]-1H-pyrazolo[4,3-c]pyridin-3-yl}-carbamate] stands 26.4 nM; under `COC(=O)Nc1n[nH]c2cc(NC(=O)N[C@@H]3CCOc4ccccc43)ncc12` [Example 295, methyl (6-{[(4R)-3,4-dihydro-2H-chromen-4-ylcarbamoyl]-amino}-1H-pyrazolo[4,3-c]-pyridin-3-yl)-carbamate], 55 nM; under `COC(=O)Nc1n[nH]c2cc(NC(=O)NCc3ccccc3OC(F)F)ncc12` [Example 296, methyl [6-({[2-(difluoromethoxy)-benzyl]carbamoyl}-amino)-1H-pyrazolo[4,3-c]-pyridin-3-yl}-carbamate], 2.5 nM.

Take `COC(=O)Nc1n[nH]c2cc(NC(=O)NCc3ccccc3OC)ncc12` [Example 297, methyl (6-{[(2-methoxybenzyl)-carbamoyl]amino}-1H-pyrazolo[4,3-c]pyridin-3-yl)-carbamate]: the IC50 came to 2 nM. Regarding `COC(=O)Nc1n[nH]c2cc(NC(=O)NCc3c(F)cccc3OC)ncc12` [Example 298, methyl (6-{[(2-fluoro-6-methoxy-benzyl)carbamoyl]-amino}-1H-pyrazolo[4,3-c]-pyridin-3-yl)-carbamate], the IC50 is 1.2 nM. The result for `COC(=O)Nc1n[nH]c2cc(NC(=O)N[C@H](C)c3cccc(F)c3)ncc12` [Example 299, methyl [6-({[(1R)-1-(3-fluorophenyl)-ethyl]carbamoyl}-amino)-1H-pyrazolo[4,3-c]-pyridin-3-yl}-carbamate] reads 1.6 nM; that for `COC(=O)Nc1n[nH]c2cc(NC(=O)N[C@H](C)c3ccc(F)c(Cl)c3)ncc12` [Example 300, methyl [6-({[(1R)-1-(3-chloro-4-fluorophenyl)ethyl]carbamoyl}amino)-1H-pyrazolo[4,3-c]pyridin-3-yl]-carbamate], 2.9 nM. With `CC[C@@H](NC(=O)Nc1cc2[nH]nc(NC(=O)OC)c2cn1)c1ccc(Cl)cc1` [Example 301, methyl [6-({[(1R)-1-(4-chlorophenyl)-propyl]carbamoyl}amino)-1H-pyrazolo[4,3-c]-pyridin-3-yl]-carbamate], the half-inhibitory concentration (IC50) was 1.4 nM. Under `COC(=O)Nc1n[nH]c2cc(NC(=O)N[C@H](C)c3ccc(Cl)c(Cl)c3)ncc12` [Example 302, methyl [6-({[(1R)-1-(3,4-dichloro-phenyl)ethyl]-carbamoyl}amino)-1H-pyrazolo[4,3-c]pyridin-3-yl]-carbamate] stands 0.7 nM; under `COC(=O)Nc1n[nH]c2cc(NC(=O)NC(C)c3ccc(F)c(F)c3)ncc12` (stereo not drawn) [Example 303, methyl [6-({[1-(3,4-difluoro-phenyl)ethyl]-carbamoyl}amino)-1H-pyrazolo[4,3-c]pyridin-3-yl]-carbamate], 3.1 nM. Turning to `COC(=O)Nc1n[nH]c2cc(NC(=O)N[C@H](C)c3ccc(Cl)c(C)c3)ncc12` [Example 304, methyl [6-({[(1R)-1-(4-chloro-3-methyl-phenyl)ethyl}-carbamoyl}amino)-1H-pyrazolo[4,3-c]pyridin-3-yl]-carbamate], the IC50 came out at 3.4 nM. The result for `COC(=O)Nc1n[nH]c2cc(NC(=O)N[C@H](C)c3ccccc3F)ncc12` [Example 305, methyl [6-({[(1R)-1-(2-fluorophenyl)-ethyl]carbamoyl}-amino)-1H-pyrazolo[4,3-c]-pyridin-3-yl]-carbamate] reads 7.3 nM. The result for `COC(=O)Nc1n[nH]c2cc(NC(=O)N[C@H](C)c3ccc(Cl)c(F)c3)ncc12` [Example 306, methyl [6-({[(1R)-1-(4-chloro-3-fluorophenyl)ethyl]carbamoyl}amino)-1H-pyrazolo[4,3-c]pyridin-3-yl]-carbamate] reads 1.5 nM; that for `COC(=O)Nc1n[nH]c2cc(NC(=O)N[C@H](C)c3ccc(Cl)c(O)c3)ncc12` [Example 307, methyl [6-({[(1R)-1-(4-chloro-3-hydroxyphenyl)-ethyl]carbamoyl}-amino)-1H-pyrazolo[4,3-c]-pyridin-3-yl]-carbamate], 1.7 nM; that for `C[C@@H](NC(=O)Nc1cc2[nH]nc(NC(=O)N[C@H](C)c3ccc(Cl)c(O)c3)c2cn1)c1ccc(Cl)c(O)c1` [Example 308, N′,N″′-1H-pyrazolo[4,3-c]-pyridine-3,6-diylbis{1-[(1R)-1-(4-chloro-3-hydroxyphenyl)-ethyl]urea}], 461 nM.

`COC(=O)Nc1n[nH]c2cc(NC(=O)N[C@H](C)c3ccc(Cl)c(C(F)(F)F)c3)ncc12` [Example 309, methyl {6-[({(1R)-1-[4-chloro-3-(trifluoromethyl)-phenyl]ethyl}-carbamoyl)amino]-1H-pyrazolo[4,3-c]pyridin-3-yl}-carbamate]: the IC50 was 3.6 nM.

Turning to `C[C@@H](NC(=O)Nc1cc2[nH]nc(NC(=O)N[C@H](C)c3ccc(Cl)c(C(F)(F)F)c3)c2cn1)c1ccc(Cl)c(C(F)(F)F)c1` [Example 310, N′,N″′-1H-pyrazolo[4,3-c]-pyridine-3,6-diylbis(1-{(1R)-1-[4-chloro-3-(trifluoromethyl)-phenyl]ethyl}urea)], the half-inhibitory concentration (IC50) worked out at 2450 nM.
